Columns and labels:
Assay type in all cases: cell-based, human
VCaP cells = experiment: Anti-proliferative toxicity against prostate cancer cell line Vcap (CCK8); details: 3 days; for IC50: CCK8
Summary of the method: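 VCaP cells (DMEM, 10% FBS) seeded 20000 cells/well, cultured 72 h, then exposed in triplicate to compound at final well concentrations of 0.00001–0.16 μM for 3 days at 37 °C, 5% CO2. Viability by CCK8, 1–4 h at 37 °C, absorbance at 450 nm.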

22Rv1 cells = experiment: Anti-proliferative toxicity against prostate cancer cell line 22Rv1 (CCK8); details: 3 days; for IC50: CCK8
Summary of the method: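 22Rv1 cells pre-cultured for 48 h, then exposed to compounds at 0.00001-1.0 μM final, in triplicate, for 3 days. Viability read by CCK8 absorbance at 450 nm after 1-4 h at 37 °C.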

PC-3 cells = experiment: Anti-proliferative toxicity against prostate cancer cell line PC-3 (CCK8); details: 3 days
Summary of the method: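 PC-3 cells (4000/well, pre-cultured 24 h) exposed in triplicate to compound at final 0.00001-1.0 μM for 3 days at 37 °C, 5% CO2. Viability read by CCK8, 1-4 h at 37 °C, absorbance at 450 nm.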

Molecule	IC50 (VCaP cells; Homo sapiens, 72 h) [nM]	IC50 (22Rv1 cells; Homo sapiens, 72 h) [nM]	IC50 (PC-3 cells; Homo sapiens, 72 h) [nM]	further results
C[C@]12C=CC(=O)N[C@@H]1CC[C@@H]1[C@@H]2CC[C@]2(C)[C@@H](C(=O)Nc3cccc(OC4CCC(Nc5cccc6c5C(=O)N(C5CCC(=O)NC5=O)C6=O)C4)c3)CC[C@@H]12 (stereo partly drawn) [C57, N-(3-((3-((4-(2-(3-(2,6-dioxopiperidine))-isoindole-1,3-dione))amino)cyclopentyl)oxy)phenyl)-3-oxo-4-aza-5α-androst-1-ene-17β-carboxamide]	10 to 1000	10 to 1000	> 1000	
C[C@]12C=CC(=O)N[C@@H]1CC[C@@H]1[C@@H]2CC[C@]2(C)[C@@H](C(=O)Nc3ccc(OCCCCCNc4cccc5c4C(=O)N(C4CCC(=O)NC4=O)C5=O)cc3)CC[C@@H]12 (stereo partly drawn) [C19, N-(4-((5-((4-(2-(3-(2,6-dioxopiperidine))-isoindole-1,3-dione))amino)pentyl)oxy)phenyl)-3-oxo-4-aza-5α-androst-1-ene-17β-carboxamide]	> 1000	> 1000	> 1000	
C[C@]12C=CC(=O)N[C@@H]1CC[C@@H]1[C@@H]2CC[C@]2(C)[C@@H](C(=O)Nc3cccc(N[C@@H]4COC[C@@H](Nc5cccc6c5C(=O)N(C5CCC(=O)NC5=O)C6=O)C4)c3)CC[C@@H]12 (stereo partly drawn) [C75, N-(3-(N—(N-(4-(2-(3-(2,6-dioxopiperidine))-isoindole-1,3-dione))-tetrahydropyran-3S,5S-diamine))phenyl)-3-oxo-4-aza-5α-androst-1-ene-17β-carboxamide]	10 to 1000	10 to 1000	10 to 1000	
C[C@]12C=CC(=O)N[C@@H]1CC[C@@H]1[C@@H]2CC[C@]2(C)[C@@H](C(=O)Nc3ccc(OCCNc4ccc5c(c4)C(=O)N(C4CCC(=O)NC4=O)C5=O)nc3)CC[C@@H]12 (stereo partly drawn) [C47, N-(5-(2-((2-((5-(2-(3-(2,6-dioxopiperidine))-isoindole-1,3-dione))amino)ethyl)oxy)pyridine))-3-oxo-4-aza-5α-androst-1-ene-17β-carboxamide]	10 to 1000	10 to 1000	> 1000	
C[C@]12C=CC(=O)N[C@@H]1CC[C@@H]1[C@@H]2CC[C@]2(C)[C@@H](C(=O)Nc3cccc(OCCCCCCNc4ccc5c(c4)C(=O)N(C4CCC(=O)NC4=O)C5=O)c3)CC[C@@H]12 (stereo partly drawn) [C36, N-(3-((6-((5-(2-(3-(2,6-dioxopiperidine))-isoindole-1,3-dione))amino)hexyl)oxy)phenyl)-3-oxo-4-aza-5α-androst-1-ene-17β-carboxamide]	> 1000	> 1000	> 1000	
C[C@]12C=CC(=O)N[C@@H]1CC[C@@H]1[C@@H]2CC[C@]2(C)[C@@H](C(=O)Nc3cccc(NC4CCC(Nc5cccc6c5C(=O)N(C5CCC(=O)NC5=O)C6=O)CC4)c3)CC[C@@H]12 (stereo partly drawn) [C54, N-(3-((4-((4-(2-(3-(2,6-dioxopiperidine))-isoindole-1,3-dione))amino)cyclohexyl)amino)phenyl)-3-oxo-4-aza-5α-androst-1-ene-17β-carboxamide]	> 1000	> 1000	> 1000	
C[C@]12C=CC(=O)N[C@@H]1CC[C@@H]1[C@@H]2CC[C@]2(C)[C@@H](C(=O)NCCNc3ccc4c(c3)C(=O)N(C3CCC(=O)NC3=O)C4=O)CC[C@@H]12 (stereo partly drawn) [C2, N-(2-((5-(2-(3-(2,6-dioxopiperidine))-isoindole-1,3-dione))amino)ethyl)-3-oxo-4-aza-5α-androst-1-ene-17β-carboxamide]	> 1000	> 1000	> 1000	
C[C@]12C=CC(=O)N[C@@H]1CC[C@@H]1[C@@H]2CC[C@]2(C)[C@@H](C(=O)Nc3cc(OCCCNc4cccc5c4C(=O)N(C4CCC(=O)NC4=O)C5=O)ccn3)CC[C@@H]12 (stereo partly drawn) [C53, N-(2-(4-((3-((4-(2-(3-(2,6-dioxopiperidine))-isoindole-1,3-dione))amino)propyl)oxy)-pyridine))-3-oxo-4-aza-5α-androst-1-ene-17β-carboxamide]	> 1000	> 1000	> 1000	
C[C@]12C=CC(=O)N[C@@H]1CC[C@@H]1[C@@H]2CC[C@]2(C)[C@@H](C(=O)NCCNc3cccc4c3C(=O)N(C3CCC(=O)NC3=O)C4=O)CC[C@@H]12 (stereo partly drawn) [C1, N-(2-((4-(2-(3-(2,6-dioxopiperidine))-isoindole-1,3-dione))amino)ethyl)-3-oxo-4-aza-5α-androst-1-ene-17β-carboxamide]	> 1000	> 1000	> 1000	
N-(3-(N—(N-(4-(2-(3-(2,6-dioxopiperidine))-isoindole-1,3-dione))-(1R,5S)-bicyclo[3,2,2]nonane-7R,8R-diamine))phenyl)-3-oxo-4-aza-5α-androst-1-ene-17β-carboxamide and N-(3-(N—(N-(4-(2-(3-(2,6-dioxopiperidine))-isoindole-1,3-dione))-(1S,5R)-bicyclo[3,2,2]nonane-7R,8R-diamine))phenyl)-3-oxo-4-aza-5α-androst-1-ene-17β-carboxamide [C73]				IC50 (VCaP cells): 10 to 1000 nM; IC50 (22Rv1 cells): 10 to 1000 nM; IC50 (PC-3 cells): > 1000 nM
C[C@]12C=CC(=O)N[C@@H]1CC[C@@H]1[C@@H]2CC[C@]2(C)[C@@H](C(=O)Nc3ccc(OCCCCCNc4ccc5c(c4)C(=O)N(C4CCC(=O)NC4=O)C5=O)cc3)CC[C@@H]12 (stereo partly drawn) [C20, N-(4-((5-((5-(2-(3-(2,6-dioxopiperidine))-isoindole-1,3-dione))amino)pentyl)oxy)phenyl)-3-oxo-4-aza-5α-androst-1-ene-17β-carboxamide]	> 1000	> 1000	> 1000	
C[C@]12C=CC(=O)N[C@@H]1CC[C@@H]1[C@@H]2CC[C@]2(C)[C@@H](C(=O)Nc3ccc(OCCCNc4cccc5c4C(=O)N(C4CCC(=O)NC4=O)C5=O)cc3)CC[C@@H]12 (stereo partly drawn) [C17, N-(4-((3-((4-(2-(3-(2,6-dioxopiperidine))-isoindole-1,3-dione))amino)propyl)oxy)phenyl)-3-oxo-4-aza-5α-androst-1-ene-17β-carboxamide]	> 1000	> 1000	> 1000	
N-(3-(N—(N-(4-(2-(3-(2,6-dioxopiperidine))-isoindole-1,3-dione))-(1R,4S)-bicyclo[2,2,2]octane-2R,6R-diamine))phenyl)-3-oxo-4-aza-5α-androst-1-ene-17β-carboxamide and N-(3-(N—(N-(4-(2-(3-(2,6-dioxopiperidine))-isoindole-1,3-dione))-(1S,4R)-bicyclo[2,2,2]octane-2R,6R-diamine))phenyl)-3-oxo-4-aza-5α-androst-1-ene-17β-carboxamide [C72]				IC50 (VCaP cells): 10 to 1000 nM; IC50 (22Rv1 cells): 10 to 1000 nM; IC50 (PC-3 cells): > 1000 nM
C[C@]12C=CC(=O)N[C@@H]1CC[C@@H]1[C@@H]2CC[C@]2(C)[C@@H](C(=O)NCCCCCNc3cccc4c3C(=O)N(C3CCC(=O)NC3=O)C4=O)CC[C@@H]12 (stereo partly drawn) [C7, N-(5-((4-(2-(3-(2,6-dioxopiperidine))-isoindole-1,3-dione))amino)pentyl)-3-oxo-4-aza-5α-androst-1-ene-17β-carboxamide]	> 1000	> 1000	> 1000	
C[C@]12C=CC(=O)N[C@@H]1CC[C@@H]1[C@@H]2CC[C@]2(C)[C@@H](C(=O)Nc3ccc(OCCCCCCNc4ccc5c(c4)C(=O)N(C4CCC(=O)NC4=O)C5=O)cc3)CC[C@@H]12 (stereo partly drawn) [C22, N-(4-((6-((5-(2-(3-(2,6-dioxopiperidine))-isoindole-1,3-dione))amino)hexyl)oxy)phenyl)-3-oxo-4-aza-5α-androst-1-ene-17β-carboxamide]	> 1000	> 1000	> 1000	
C[C@]12C=CC(=O)N[C@@H]1CC[C@@H]1[C@@H]2CC[C@]2(C)[C@@H](C(=O)Nc3cccc(OCCCCCCCCNc4cccc5c4C(=O)N(C4CCC(=O)NC4=O)C5=O)c3)CC[C@@H]12 (stereo partly drawn) [C39, N-(3-((8-((4-(2-(3-(2,6-dioxopiperidine))-isoindole-1,3-dione))amino)octyl)oxy)phenyl)-3-oxo-4-aza-5α-androst-1-ene-17β-carboxamide]	> 1000	> 1000	> 1000	
C[C@]12C=CC(=O)N[C@@H]1CC[C@@H]1[C@@H]2CC[C@]2(C)[C@@H](C(=O)Nc3cccc(OCCCNc4cccc5c4C(=O)N(C4CCC(=O)NC4=O)C5=O)c3)CC[C@@H]12 (stereo partly drawn) [C29, N-(3-((3-((4-(2-(3-(2,6-dioxopiperidine))-isoindole-1,3-dione))amino)propyl)oxy)phenyl)-3-oxo-4-aza-5α-androst-1-ene-17β-carboxamide]	0.1 to 10	0.1 to 10	> 1000	Anti-proliferative toxicity data in VCaP cells (VCaP cells; 0.00005 μM): 0.4%; Anti-proliferative toxicity data in VCaP cells (VCaP cells; 0.00010 μM): 25.8%; Anti-proliferative toxicity data in VCaP cells (VCaP cells; 0.00030 μM): 40.3%; Anti-proliferative toxicity data in VCaP cells (VCaP cells; 0.00100 μM): 70.8%; Anti-proliferative toxicity data in VCaP cells (VCaP cells; 0.00300 μM): 80.1%; Anti-proliferative toxicity data in VCaP cells (VCaP cells; 0.00600 μM): 88.3%; Anti-proliferative toxicity data in VCaP cells (VCaP cells; 0.03200 μM): 89.4%; Anti-proliferative toxicity data in VCaP cells (VCaP cells; 0.16000 μM): 90.0%; Anti-proliferative toxicity data in 22Rv1 cells (22Rv1 cells; 0.00006 μM): 0.2%; Anti-proliferative toxicity data in 22Rv1 cells (22Rv1 cells; 0.00032 μM): 5.6%; Anti-proliferative toxicity data in 22Rv1 cells (22Rv1 cells; 0.00160 μM): 27.6%; Anti-proliferative toxicity data in 22Rv1 cells (22Rv1 cells; 0.00800 μM): 64.2%; Anti-proliferative toxicity data in 22Rv1 cells (22Rv1 cells; 0.04000 μM): 70.8%; Anti-proliferative toxicity data in 22Rv1 cells (22Rv1 cells; 0.20000 μM): 72.4%; Anti-proliferative toxicity data in 22Rv1 cells (22Rv1 cells; 1.00000 μM): 73.5%
